The source of these data is patent US8513423B2 (Janssen Pharmaceutica, NV, priority 2010, dated 2013).

Positions count from the first letter of the chain named. Like-named read-outs stand apart in the source and are kept apart here.

Assay [1] concerns the target T1, purified wild type MGL (wt-MGLL 6H-11-313) (Homo sapiens, UniProt Q99685).
T1 construct: purified wild type MGL (wt-MGLL 6H-11-313)
T1 sequence (Q99685 1-303): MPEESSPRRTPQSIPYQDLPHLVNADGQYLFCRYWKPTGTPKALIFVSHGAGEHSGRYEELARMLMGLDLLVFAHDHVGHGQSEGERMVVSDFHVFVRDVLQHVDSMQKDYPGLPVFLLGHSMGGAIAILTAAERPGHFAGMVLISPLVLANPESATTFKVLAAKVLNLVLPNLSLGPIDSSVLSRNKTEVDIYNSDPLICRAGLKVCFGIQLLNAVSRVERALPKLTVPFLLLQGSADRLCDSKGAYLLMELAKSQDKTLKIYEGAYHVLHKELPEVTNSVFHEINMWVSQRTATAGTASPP
Put plainly: MGL enzyme activity assay (4MU-B cleavage), wild type MGL. It counts as biochemical. The following applies: 10 μM 4MU-B, 5 nM enzyme, 37° C., read-out: MGL wild type inh IC50. The protocol: All rate-based assays were performed in black 384-well polypropylene PCR microplates (Abgene) in a total volume of 30 μL. Substrate 4-methylumbelliferyl butyrate (4MU-B; Sigma) and either purified mutant MGL (mut-MGLL 11-313 L179S L186S) or purified wild type MGL (wt-MGLL 6H-11-313) were diluted separately into 20 mM PIPES buffer (pH=7.0), containing 150 mM NaCl and 0.001% Tween 20. Compounds of Formula (I) were pre-dispensed (50 nL) into the assay plate using a Cartesian Hummingbird prior to adding 4MU-B (25 μL of 1.2× solution to a final concentration of 10 μM) followed by enzyme (5 μL of a 6× solution to a final concentration of 5 nM) to initiate the reaction. Final compound concentrations ranged from 17 to 0.0003 μM. The fluorescence change due to 4MU-B cleavage was monitored with excitation and emission wavelengths of 335 and 440 nm, respectively, and a bandwidth of 10 nm (Safire^2, Tecan) at 37° C. for 5 min.
The IC50 values for compounds of Formula (I) were determined using Excel from a fit of the equation to the concentration-response plot of the fractional activity as a function of inhibitor concentration.

For another assay, the target named is T2, mutant MGL (Homo sapiens, UniProt Q99685, L169S/L176S).
T2 construct: purified mutant MGL (mut-MGLL 11-313 L179S L186S)
T2 sequence (Q99685 1-303 L169S/L176S): T1 sequence (Q99685 1-303) with L169S, L176S
Put plainly: MGL ThermoFluor assay - mutant. Type of assay: binding. The protocol: The ThermoFluor (TF) assay is a 384-well plate-based binding assay that measures thermal stability of proteins^1,2. The experiments were carried out using instruments available from Johnson & Johnson Pharmaceutical Research & Development, LLC. TF dye used in all experiments was 1,8-ANS (Invitrogen: A-47). Final TF assay conditions used for MGL studies were 0.07 mg/ml of mutant MGL, 100 μM ANS, 200 mM NaCl, 0.001% Tween-20 in 50 mM PIPES (pH=7.0).
Screening compound plates contained 100% DMSO compound solutions at a single concentration. For follow-up concentration-response studies, compounds were arranged in a pre-dispensed plate (Greiner Bio-one: 781280), wherein compounds were serially diluted in 100% DMSO across 11 columns within a series. Columns 12 and 24 were used as DMSO reference and contained no compound. For both single and multiple compound concentration-repsonse experiments, the compound aliquots (46 nL) were robotically predispensed directly into 384-well black assay plates (Abgene: TF-0384/k) using the Hummingbird liquid handler. Following compound dispension, protein and dye solutions were added to achieve the final assay volume of 3 μL. The assay solutions were overlayed with 1 μl of silicone oil (Fluka, type DC 200: 85411) to prevent evaporation.
Bar-coded assay plates were robotically loaded onto a thermostatically controlled PCR-type thermal block and then heated from 40 to 90° C. degrees at a ramp-rate of 1° C./min for all experiments. Fluorescence was measured by continuous illumination with UV light (Hamamatsu LC6), supplied via fiber optics and filtered through a band-pass filter (380-400 nm; >6 OD cutoff). Fluorescence emission of the entire 384-well plate was detected by measuring light intensity using a CCD camera (Sensys, Roper Scientific) filtered to detect 500±25 nm, resulting in simultaneous and independent readings of all 384 wells. A single image with 20-sec exposure time was collected at each temperature, and the sum of the pixel intensity in a given area of the assay plate was recorded vs temperature and fit to standard equations to yield the Tm^1. • 1. Pantoliano, M. W., Petrella, E. C., Kwasnoski, J. D., Lobanov, V. S., Myslik, J., Graf, E., Carver, T., Asel, E., Springer, B. A., Lane, P., and Salemme, F. R. (2001) J Biomol Screen 6, 429-40. • 2. Matulis, D., Kranz, J. K., Salemme, F. R., and Todd, M. J. (2005) Biochemistry 44, 5258-66.
The Kd values for compounds of Formula (I) were determined from a fit of the equation to the concentration-response plot of the fractional activity as a function of Tm. For some experiments, quantitative NMR spectroscopy (qNMR) was used to measure concentration of the initial 100% DMSO compound solutions and, using the same fitting method, qKd values were determined

[2] abbreviates: 0.07 mg/ml mutant MGL, pH=7.0, read-out: MGL mutant ThermoFluor Kd.
Where [3] appears, read: compound concentration measured by qNMR, read-out: MGL mutant ThermoFluor qKd (using qNMR conc.).

Take `O=C(c1cccc(-c2cccc(F)c2)c1)N1CC(C2CCN(C(=O)c3cscn3)CC2)C1` [Cpd 11, 4-{1-[(3′-Fluorobiphenyl-3-yl)carbonyl]azetidin-3-yl}-1-(1,3-thiazol-4-ylcarbonyl)piperidine]: the IC50 in assay [1] is 498 nM. Besides, the Kd on mutant MGL (setting [2]) stood at 732 nM.
In the case of `O=C(c1ccc2c(ccn2-c2ccc(F)c(F)c2)c1)N1CCC(C2CN(C(=O)c3nccs3)C2)CC1` [Cpd 78, 1-(3,4-Difluorophenyl)-5-({4-[1-(1,3-thiazol-2-ylcarbonyl)azetidin-3-yl]piperidin-1-yl}carbonyl)-1H-indole], the IC50 in assay [1] was under 5 nM. Moreover, the Kd at mutant MGL (setting [3]) came out at 2.3 nM.
The corresponding values for `Cc1nc2cc(C(=O)N3CC(C4CCN(C(=O)c5nccs5)CC4)C3)ccc2n1C1CCC(F)(F)CC1` [Cpd 92, 1-(4,4-Difluorocyclohexyl)-2-methyl-5-({3-[1-(1,3-thiazol-2-ylcarbonyl)piperidin-4-yl]azetidin-1-yl}carbonyl)-1H-benzimidazole] are 163 nM and 3.4 nM.
On to `O=C(c1ccc2c(ccn2-c2ccc(F)c(F)c2)c1)N1CC(C2CCN(C(=O)c3nccs3)CC2)C1`, for which the IC50 in assay [1] was under 5 nM. For the same compound, the Kd at mutant MGL (setting [2]) worked out at 0.6 nM.
Turning to `O=C(c1ccc(-c2ccccc2)cc1)N1CC(C2CCN(C(=O)c3cncs3)CC2)C1` [Cpd 5, 4-[1-(Biphenyl-4-ylcarbonyl)azetidin-3-yl]-1-(1,3-thiazol-5-ylcarbonyl)piperidine], the IC50 in assay [1] came to 87.6 nM. For the same compound, on mutant MGL (setting [2]), the Kd worked out at 64.1 nM.
With `O=C(c1ccc2c(c1)[nH]c(=O)n2-c1ccccc1)N1CC(C2CCN(C(=O)c3nccs3)CC2)C1` [Cpd 96, 1-Phenyl-5-({3-[1-(1,3-thiazol-2-ylcarbonyl)piperidin-4-yl]azetidin-1-yl}carbonyl)-1,3-dihydro-2H-benzimidazol-2-one], the IC50 in assay [1] was found to be 78.1 nM. The Kd on mutant MGL (setting [3]) was found to be 24.7 nM.
As for `O=C(c1ccc2c(c1)[nH]c(=O)n2C1CCC(F)(F)CC1)N1CC(C2CCN(C(=O)c3nccs3)CC2)C1` [Cpd 101, 1-(4,4-Difluorocyclohexyl)-5-({3-[1-(1,3-thiazol-2-ylcarbonyl)piperidin-4-yl]azetidin-1-yl}carbonyl)-1,3-dihydro-2H-benzimidazol-2-one], the IC50 in assay [1] came out at 104 nM. The Kd at mutant MGL (setting [3]) came out at 3.9 nM.
The like results for `O=C(c1cc2ccc(C(F)(F)F)cc2s1)N1CC(C2(O)CCN(C(=O)c3nccs3)CC2)C1` [Cpd 94, 1-(1,3-Thiazol-2-ylcarbonyl)-4-(1-{[6-(trifluoromethyl)-1-benzothiophen-2-yl]carbonyl}azetidin-3-yl)piperidin-4-ol] were, in that order, 10 nM and 24.9 nM.
Regarding `O=C(c1cc[nH]c1)N1CCC(C2CN(C(=O)c3ccc(-c4ccccc4)cc3)C2)CC1` [Cpd 4, 4-[1-(Biphenyl-4-ylcarbonyl)azetidin-3-yl]-1-(1H-pyrrol-3-ylcarbonyl)piperidine], the IC50 in assay [1] stood at 154 nM. Moreover, on mutant MGL (setting [2]), the Kd stood at 162 nM.
With `O=C(c1ccc2c(c1)ncn2-c1ccc(F)c(F)c1)N1CC(C2CCN(C(=O)c3nccs3)CC2)C1` [Cpd 82, 1-(3,4-Difluorophenyl)-5-({3-[1-(1,3-thiazol-2-ylcarbonyl)piperidin-4-yl]azetidin-1-yl}carbonyl)-1H-benzimidazole], the IC50 in assay [1] was 35.5 nM. The Kd at mutant MGL (setting [3]) worked out at 22.8 nM.
`O=C(c1ccc2c(c1)[nH]c(=O)n2CCC(F)(F)F)N1CC(C2CCN(C(=O)c3nccs3)CC2)C1` [Cpd 100, 5-({3-[1-(1,3-Thiazol-2-ylcarbonyl)piperidin-4-yl]azetidin-1-yl}carbonyl)-1-(3,3,3-trifluoropropyl)-1,3-dihydro-2H-benzimidazol-2-one]: the IC50 in assay [1] was 101 nM. Besides, the Kd on mutant MGL (setting [3]) is 88.8 nM.
Take `O=C(c1ccc2c(ccn2-c2ccc(Cl)cn2)c1)N1CC(C2CCN(C(=O)c3nccs3)CC2)C1` [Cpd 93, 1-(5-Chloropyridin-2-yl)-5-({3-[1-(1,3-thiazol-2-ylcarbonyl)piperidin-4-yl]azetidin-1-yl}carbonyl)-1H-indole]: the IC50 in assay [1] is under 5 nM. In addition, on mutant MGL (setting [2]), the Kd turned out to be 5.5 nM.
Take `Cc1nc2cc(C(=O)N3CC(C4CCN(C(=O)c5nccs5)CC4)C3)ccc2n1-c1ccccc1` [Cpd 86, 2-Methyl-1-phenyl-5-({3-[1-(1,3-thiazol-2-ylcarbonyl)piperidin-4-yl]azetidin-1-yl}carbonyl)-1H-benzimidazole]: in assay [1], the IC50 amounted to 18.7 nM. In addition, at mutant MGL (setting [3]), the Kd came to 10.6 nM.
Consider `O=C(c1ccc2c(c1)ncn2-c1ccc(F)cc1)N1CC(C2CCN(C(=O)c3nccs3)CC2)C1` [Cpd 81, 1-(4-Fluorophenyl)-5-({3-[1-(1,3-thiazol-2-ylcarbonyl)piperidin-4-yl]azetidin-1-yl}carbonyl)-1H-benzimidazole], for which the IC50 in assay [1] amounted to 23.2 nM. Further, at mutant MGL (setting [3]), the Kd came out at 14.8 nM.
Turning to `Cc1nc2cc(C(=O)N3CC(C4CCN(C(=O)c5nccs5)CC4)C3)ccc2n1CC(F)(F)F` [Cpd 90, 2-Methyl-5-({3-[1-(1,3-thiazol-2-ylcarbonyl)piperidin-4-yl]azetidin-l-yl}carbonyl)-1-(2,2,2-trifluoroethyl)-1H-benzimidazole], in assay [1], the IC50 was determined as 173 nM. Also, the Kd at mutant MGL (setting [3]) is 23.7 nM.
